Results taken from ChEMBL document CHEMBL1201862, “PubChem BioAssay data set” (2004).
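Step 1: Grow cells in 96-well plates. Step 2: Expose to compound for 48 hours at 5 concentrations. Step 3: Interpolate endpoints linearly; if unreached, use highest concentration. Here, GI50 denotes the concentration required for 50% inhibition of growth.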 Activity calls are given as the source filed them. No stated cut-off is given here; in the data, active = GI50 up to about 1.1 µM and inactive = higher.

What was measured:
Experiment in all cases: NCI anticancer screen, dose series, 48 h
HCT-116 = test system: HCT-116
T47D = test system: T47D
NCI-H226 = test system: NCI-H226
Malme-3M = test system: Malme-3M
NCI/ADR-RES = test system: NCI/ADR-RES
CCRF-CEM = test system: CCRF-CEM
NCI-H460 = test system: NCI-H460
UO-31 = test system: UO-31
786-0 = test system: 786-0
A498 = test system: A498
SR = test system: SR
HT-29 = test system: HT-29
K562 = test system: K562
TK-10 = test system: TK-10
BT-549 = test system: BT-549
SF-268 = test system: SF-268
Hs-578T = test system: Hs-578T
DU-145 = test system: DU-145
A549 = test system: A549
CAKI-1 = test system: CAKI-1

Compound	GI50 (HCT-116)	GI50 (T47D)	GI50 (NCI-H226)	GI50 (Malme-3M)	GI50 (NCI/ADR-RES)	GI50 (CCRF-CEM)	GI50 (NCI-H460)	GI50 (UO-31)	GI50 (786-0)	GI50 (A498)	GI50 (SR)	GI50 (HT-29)	GI50 (K562)	GI50 (TK-10)	GI50 (BT-549)	GI50 (SF-268)	GI50 (Hs-578T)	GI50 (DU-145)	GI50 (A549)	GI50 (CAKI-1)
CC(=O)N1OC(C)CC1Nc1ccc(Br)cc1 (stereo unspecified)	4.03 µM (inactive)	1.34 µM (inactive)	4.39 µM (inactive)	> 100 µM (inactive)	> 100 µM (inactive)	0.452 µM (active)	8.04 µM (inactive)	0.0955 µM (active)	> 100 µM (inactive)	> 100 µM (inactive)	1.42 µM (inactive)	75.9 µM (inactive)	0.345 µM (active)	14.7 µM (inactive)	65.3 µM (inactive)	> 100 µM (inactive)	> 100 µM (inactive)	0.493 µM (active)	9.12 µM (inactive)	
O=C(Cc1ccccc1)NN1C(=O)/C(=C\c2ccc(O)cc2)S/C1=N\c1ccccc1	> 100 µM (inactive)	41 µM (inactive)	> 100 µM (inactive)		> 100 µM (inactive)	> 100 µM (inactive)	> 100 µM (inactive)	> 100 µM (inactive)	> 100 µM (inactive)	> 100 µM (inactive)		> 100 µM (inactive)	> 100 µM (inactive)	> 100 µM (inactive)	> 100 µM (inactive)	> 100 µM (inactive)	> 100 µM (inactive)	> 100 µM (inactive)	> 100 µM (inactive)	
CCCCOC(=O)NC(Nc1ccc(S(N)(=O)=O)cc1)(C(F)(F)F)C(F)(F)F	> 100 µM (inactive)	> 100 µM (inactive)	> 100 µM (inactive)	> 100 µM (inactive)		> 100 µM (inactive)	> 100 µM (inactive)	79.8 µM (inactive)		> 100 µM (inactive)	> 100 µM (inactive)	> 100 µM (inactive)	> 100 µM (inactive)	> 100 µM (inactive)	> 100 µM (inactive)	> 100 µM (inactive)	> 100 µM (inactive)	> 100 µM (inactive)		
COc1ccc(N2C(=O)c3c4c(c5c([nH]c6ncccc65)c3C2=O)CCC(C(C)(C)C)C4)cc1 (stereo unspecified)	> 100 µM (inactive)	> 100 µM (inactive)	> 100 µM (inactive)		> 100 µM (inactive)	> 100 µM (inactive)	> 100 µM (inactive)	> 100 µM (inactive)	35.6 µM (inactive)		> 100 µM (inactive)	> 100 µM (inactive)	> 10 µM (inactive)	66.4 µM (inactive)	84.9 µM (inactive)	72.6 µM (inactive)	28.8 µM (inactive)	> 100 µM (inactive)	> 100 µM (inactive)	
CCOC(=O)/C(=N/Nc1ccccc1)N1C(=S)N(C)N=C(C)C=C1S	> 100 µM (inactive)	44.2 µM (inactive)			> 100 µM (inactive)	> 100 µM (inactive)	> 100 µM (inactive)	> 100 µM (inactive)			> 100 µM (inactive)	> 100 µM (inactive)	> 100 µM (inactive)	86.1 µM (inactive)	76.9 µM (inactive)	6.82 µM (inactive)	70 µM (inactive)	> 100 µM (inactive)	> 100 µM (inactive)	> 100 µM (inactive)
CC1(c2nc3ccccc3[nH]2)CCC(CO)C(C)(C)O1 (stereo unspecified)	> 100 µM (inactive)	> 100 µM (inactive)	> 100 µM (inactive)	> 100 µM (inactive)	> 100 µM (inactive)	> 100 µM (inactive)		98.6 µM (inactive)	> 100 µM (inactive)		16.1 µM (inactive)	> 100 µM (inactive)	> 100 µM (inactive)	> 100 µM (inactive)	> 100 µM (inactive)	> 100 µM (inactive)	> 100 µM (inactive)	> 100 µM (inactive)	> 100 µM (inactive)	> 100 µM (inactive)
CN1CCc2c(sc3nc(S)nc(S)c23)C1	> 100 µM (inactive)	> 100 µM (inactive)	> 100 µM (inactive)	> 100 µM (inactive)	> 100 µM (inactive)	> 100 µM (inactive)	> 100 µM (inactive)		> 100 µM (inactive)		> 100 µM (inactive)	> 100 µM (inactive)	> 100 µM (inactive)	> 100 µM (inactive)	> 100 µM (inactive)	> 100 µM (inactive)	> 100 µM (inactive)	> 100 µM (inactive)	> 100 µM (inactive)	> 100 µM (inactive)
COc1cc(C2c3cc(OC)c(OC)c(O)c3C(=O)C3CCC(=O)N32)cc(OC)c1OC (stereo unspecified)	93.1 µM (inactive)	> 100 µM (inactive)	10.9 µM (inactive)		22 µM (inactive)		> 100 µM (inactive)		> 100 µM (inactive)	> 100 µM (inactive)	89.7 µM (inactive)	70 µM (inactive)	29.3 µM (inactive)	> 100 µM (inactive)	25.2 µM (inactive)	69.8 µM (inactive)	56.4 µM (inactive)	> 100 µM (inactive)	> 100 µM (inactive)	> 100 µM (inactive)
CC1(C)C[C@H]2C=C(C=O)[C@]34C[C@]3(C(=O)OC4O)[C@H]2C1 (stereo partly specified)	1.14 µM (inactive)	0.459 µM (active)	6.61 µM (inactive)	1.73 µM (inactive)		0.813 µM (active)	18.1 µM (inactive)	1.83 µM (inactive)		3.06 µM (inactive)	2.56 µM (inactive)	1.87 µM (inactive)	4.58 µM (inactive)	1.77 µM (inactive)	1.97 µM (inactive)	1.61 µM (inactive)	3.21 µM (inactive)	2.22 µM (inactive)	2.83 µM (inactive)	1.59 µM (inactive)
COCCOc1nc(-c2ccccc2)nc2ccccc12	46.1 µM (inactive)	27.7 µM (inactive)		51.1 µM (inactive)	32.6 µM (inactive)		19.3 µM (inactive)	38.6 µM (inactive)		15 µM (inactive)	19.7 µM (inactive)	29.6 µM (inactive)	35.5 µM (inactive)	36 µM (inactive)	35.9 µM (inactive)	27.7 µM (inactive)	28.8 µM (inactive)	54.7 µM (inactive)	37.3 µM (inactive)	34.7 µM (inactive)
O=P(O)(O)CN1CCN(CP(=O)(O)O)CCN(CP(=O)(O)O)CCN(CP(=O)(O)O)CC1	36.4 µM (inactive)	> 100 µM (inactive)	> 100 µM (inactive)		> 100 µM (inactive)	44.9 µM (inactive)	29 µM (inactive)	> 100 µM (inactive)	> 100 µM (inactive)	62.5 µM (inactive)	10.5 µM (inactive)	69 µM (inactive)	31.8 µM (inactive)	55.5 µM (inactive)	35.6 µM (inactive)	> 100 µM (inactive)	> 100 µM (inactive)	> 100 µM (inactive)	58.5 µM (inactive)	> 100 µM (inactive)
Cn1c(=O)c2c(nc(Cc3ccccc3)n2CC(=O)O)n(C)c1=O	> 100 µM (inactive)	> 100 µM (inactive)	> 100 µM (inactive)	> 100 µM (inactive)	> 100 µM (inactive)	> 100 µM (inactive)	> 100 µM (inactive)	> 100 µM (inactive)	> 100 µM (inactive)	> 100 µM (inactive)		> 100 µM (inactive)		> 100 µM (inactive)	> 100 µM (inactive)	> 100 µM (inactive)	> 100 µM (inactive)	> 100 µM (inactive)	> 100 µM (inactive)	> 100 µM (inactive)
COc1ccc2cc(/C=N\NC(=O)Nc3cccc4ccccc34)ccc2c1	16.6 µM (inactive)		28.2 µM (inactive)	97.7 µM (inactive)	> 100 µM (inactive)	21.3 µM (inactive)	17.9 µM (inactive)	87.3 µM (inactive)	12.9 µM (inactive)	17.5 µM (inactive)	16.1 µM (inactive)	39.2 µM (inactive)	14.6 µM (inactive)	22 µM (inactive)	49.4 µM (inactive)	52.6 µM (inactive)	30.5 µM (inactive)	58.2 µM (inactive)	> 100 µM (inactive)	23.8 µM (inactive)
CC(C)OP(=O)(OC(C)C)c1ccc2c(c1)OCCOCCOCCOCCO2	> 100 µM (inactive)	> 100 µM (inactive)	> 100 µM (inactive)	> 100 µM (inactive)		> 100 µM (inactive)	> 100 µM (inactive)	> 100 µM (inactive)	> 100 µM (inactive)	> 100 µM (inactive)	> 100 µM (inactive)	> 100 µM (inactive)	> 100 µM (inactive)	> 100 µM (inactive)	> 100 µM (inactive)	> 100 µM (inactive)	> 100 µM (inactive)	> 100 µM (inactive)	> 100 µM (inactive)	> 100 µM (inactive)
Cc1ccc(-c2c(C#N)c(N)nc3c2CCS(=O)(=O)c2ccccc2-3)cc1	> 100 µM (inactive)	55.5 µM (inactive)	66.1 µM (inactive)	39.4 µM (inactive)	85.9 µM (inactive)		> 100 µM (inactive)	90.8 µM (inactive)	44.2 µM (inactive)	> 100 µM (inactive)		> 100 µM (inactive)	> 100 µM (inactive)	59.7 µM (inactive)	95.3 µM (inactive)	83.4 µM (inactive)	58.1 µM (inactive)	74.6 µM (inactive)	> 100 µM (inactive)	> 100 µM (inactive)
